Literature values, collected in US20250208121A1, “MAMMALIAN PER- AND POLYFLUORINATED-ALKYL COMPOUND (PFAS) BINDING PROTEINS AND USES THEREOF” (Allonnia, LLC, priority 2023, published 2025).

Conditions: in humans; previous research

SMILES	half-life
O=C(O)C(F)(F)C(F)(F)C(F)(F)C(F)(F)C(F)(F)C(F)(F)C(F)(F)F [PFOA, perfluorooctanoic acid]	~3.8 years
O=S(=O)(O)C(F)(F)C(F)(F)C(F)(F)C(F)(F)C(F)(F)C(F)(F)C(F)(F)C(F)(F)F [PFOS, perfluorooctanesulfonic acid]	approximately 5.4 years
